Source: ChEMBL document CHEMBL1201862, “PubChem BioAssay data set” (2004)
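Assay format: 96-well plates, 48-hour exposure. GI50 is the concentration that inhibits growth by half.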 Active and inactive are the calls of the source. Cut-off read from the data, not from the text of the source: active = GI50 up to about 1.1 µM and inactive = higher.

How the values were obtained:
Experiment in all cases: growth of human tumour cells (NCI), 48 h
SNB-19 = test system: SNB-19
T47D = test system: T47D
IGROV-1 = test system: IGROV-1
SK-MEL-5 = test system: SK-MEL-5
PC-3 = test system: PC-3
MCF7 = test system: MCF7
CAKI-1 = test system: CAKI-1
SF-268 = test system: SF-268
MDA-MB-435 = test system: MDA-MB-435
NCI-H522 = test system: NCI-H522
COLO 205 = test system: COLO 205
UACC-62 = test system: UACC-62
ACHN = test system: ACHN
SNB-75 = test system: SNB-75
DU-145 = test system: DU-145
M14 = test system: M14
SF-295 = test system: SF-295
EKVX = test system: EKVX
HL-60 = test system: HL-60
Hs-578T = test system: Hs-578T

Measured: GI50

N#C[BH2-][n+]1cn(C2CC(O)C(COP(=O)(O)OC3CC(n4cnc5c(N)ncnc54)OC3CO)O2)c2nc(N)[nH]c(=O)c21 (stereo not given)
inactive: SNB-19 > 100 µM | T47D > 100 µM | IGROV-1 > 100 µM | SK-MEL-5 > 100 µM | PC-3 > 100 µM | MCF7 > 100 µM | CAKI-1 > 100 µM | SF-268 > 100 µM | MDA-MB-435 > 100 µM | NCI-H522 > 100 µM | COLO 205 > 100 µM | UACC-62 > 100 µM | ACHN > 100 µM | SNB-75 > 100 µM | DU-145 > 100 µM | M14 > 100 µM | SF-295 > 100 µM | EKVX > 100 µM | HL-60 > 100 µM

O=C1NC(=O)C2C1C1C=C3c4ccccc4N(c4ccccc4)C32[C@H]2C(=O)NC(=O)[C@@H]12 (stereo not given in full)
inactive: SNB-19 > 100 µM | IGROV-1 > 100 µM | SK-MEL-5 > 100 µM | CAKI-1 > 100 µM | SF-268 > 100 µM | NCI-H522 > 100 µM | COLO 205 > 100 µM | UACC-62 > 100 µM | ACHN > 100 µM | SNB-75 > 100 µM | M14 > 100 µM | SF-295 > 100 µM | EKVX > 100 µM | HL-60 > 100 µM

CC(=O)Oc1ccc2c(c1)C(=O)c1nc(C)c(C)nc1C2=O
inactive: SNB-19 > 52.4 µM | IGROV-1 46.8 µM | SK-MEL-5 16.2 µM | CAKI-1 > 76.6 µM | SF-268 94.2 µM | NCI-H522 50.6 µM | COLO 205 50 µM | UACC-62 17.5 µM | ACHN 48.4 µM | SNB-75 80.4 µM | M14 38.1 µM | SF-295 49.9 µM | EKVX > 48.6 µM | HL-60 24.6 µM

O=C1Nc2c(Cl)cc(Cl)cc2C1=O
inactive: SNB-19 > 100 µM | Hs-578T 16.4 µM | IGROV-1 17.7 µM | SK-MEL-5 15.3 µM | PC-3 24.3 µM | MCF7 18.5 µM | CAKI-1 17.9 µM | MDA-MB-435 4.27 µM | COLO 205 23.5 µM | UACC-62 15.8 µM | ACHN 34.2 µM | SNB-75 6.03 µM | M14 19.6 µM | SF-295 17.1 µM | EKVX 14.6 µM | HL-60 2.4 µM

CC(C)=CC(=O)Cc1nc2ccc([N+](=O)[O-])cc2[nH]c1=O
inactive: SNB-19 > 100 µM | IGROV-1 > 100 µM | SK-MEL-5 22.6 µM | CAKI-1 > 100 µM | SF-268 > 100 µM | NCI-H522 23.9 µM | COLO 205 > 100 µM | UACC-62 > 100 µM | ACHN > 100 µM | SNB-75 18.5 µM | M14 > 100 µM | SF-295 > 100 µM | EKVX > 100 µM | HL-60 40.8 µM

O=C(CC1(O)C(=O)Nc2ccccc21)c1ccc(F)cc1 (stereo not given)
inactive: SNB-19 > 100 µM | IGROV-1 > 100 µM | SK-MEL-5 > 100 µM | CAKI-1 > 100 µM | SF-268 > 100 µM | NCI-H522 > 100 µM | COLO 205 > 100 µM | UACC-62 > 100 µM | ACHN > 100 µM | SNB-75 > 100 µM | M14 > 100 µM | SF-295 > 100 µM | EKVX > 100 µM | HL-60 > 100 µM

CC(=O)NS(=O)(=O)c1ccc(NC(=O)c2c3ccccc3nc3ccccc23)cc1
inactive: SNB-19 > 100 µM | IGROV-1 > 100 µM | SK-MEL-5 > 100 µM | PC-3 > 100 µM | MCF7 > 100 µM | CAKI-1 > 100 µM | SF-268 > 100 µM | MDA-MB-435 > 100 µM | NCI-H522 > 100 µM | COLO 205 > 100 µM | UACC-62 > 100 µM | ACHN > 100 µM | SNB-75 > 100 µM | DU-145 > 100 µM | M14 > 100 µM | SF-295 > 100 µM | EKVX > 100 µM | HL-60 1.48 µM

COc1ccc(SS(=O)(=O)c2ccc(OC)cc2)cc1
inactive: SNB-19 24.4 µM | IGROV-1 10 µM | SK-MEL-5 15.2 µM | CAKI-1 22.5 µM | SF-268 17.4 µM | NCI-H522 15.3 µM | COLO 205 17.9 µM | UACC-62 20 µM | ACHN 18.4 µM | SNB-75 23.2 µM | M14 20 µM | SF-295 19.5 µM | EKVX 21.1 µM | HL-60 2.24 µM

O=C(O)c1cc(Cl)cc(NC(=O)C(Cl)Cl)c1Cl
inactive: SNB-19 > 100 µM | IGROV-1 > 100 µM | SK-MEL-5 > 100 µM | CAKI-1 > 100 µM | SF-268 > 100 µM | NCI-H522 > 100 µM | COLO 205 > 100 µM | UACC-62 > 100 µM | ACHN > 100 µM | SNB-75 > 100 µM | M14 > 100 µM | SF-295 > 100 µM | EKVX > 100 µM | HL-60 > 100 µM

Cc1sc(Nc2ccccc2[N+](=O)[O-])c(C#N)c1C
inactive: SNB-19 26.2 µM | T47D 28.4 µM | PC-3 94.8 µM | MCF7 94.2 µM | CAKI-1 17.1 µM | SF-268 14.5 µM | MDA-MB-435 > 100 µM | NCI-H522 2.7 µM | COLO 205 > 100 µM | UACC-62 77.8 µM | ACHN 31 µM | SNB-75 12.1 µM | DU-145 65.2 µM | M14 > 100 µM | SF-295 26.2 µM | EKVX 35.4 µM

CCOC(=O)C1=C(C)N(C)C23OC4(C(=O)OC)CC2c2ccccc2C1N3C4=O (stereo not given)
inactive: SNB-19 > 100 µM | T47D > 100 µM | IGROV-1 > 100 µM | SK-MEL-5 32.5 µM | PC-3 > 100 µM | MCF7 28.1 µM | CAKI-1 > 100 µM | SF-268 > 100 µM | MDA-MB-435 30.8 µM | NCI-H522 37.4 µM | COLO 205 > 100 µM | UACC-62 > 100 µM | ACHN > 100 µM | SNB-75 > 100 µM | DU-145 > 100 µM | M14 73.8 µM | SF-295 39.3 µM | EKVX > 100 µM | HL-60 24.6 µM

CC(C(N)=O)N(C)C(=O)c1cc2ccccc2[n+](Cc2ccccc2)c1 (stereo not given)
inactive: SNB-19 > 100 µM | T47D > 100 µM | IGROV-1 > 100 µM | SK-MEL-5 > 100 µM | PC-3 > 100 µM | MCF7 > 100 µM | CAKI-1 > 100 µM | SF-268 > 100 µM | MDA-MB-435 > 100 µM | NCI-H522 > 100 µM | COLO 205 > 100 µM | UACC-62 > 100 µM | ACHN > 100 µM | SNB-75 > 100 µM | DU-145 > 100 µM | M14 > 100 µM | SF-295 > 100 µM | HL-60 > 100 µM
